Assay results as given in patent US10975355B2, “Controlled induction of human pancreatic progenitors produces functional beta-like cells” (THE REGENTS OF THE UNIVERSITY OF CALIFORNIA, priority 2015, dated 2021).

How the values were obtained:
Assay type in all cases: cell-based, human
[1] = system: MEL1 INS^GFP/W reporter cells (hESC); assay: Flow cytometric analysis of pancreatic progenitor/endocrine markers in differentiating hESC spheres; conditions: for generation of PDX1+ cells over base media alone: group 1, factor alone days 6-8 (conditions 2 and 3), day 9.5
Protocol: Undifferentiated MEL1 INS^GFP/W reporter cells (Micallef et al, 2012) were maintained on mouse embryo fibroblast feeder layers (Millipore) in hESC media as described (Guo et al, 2013b). Suspension-based differentiations were carried out as follows. Briefly, confluent cultures were dissociated into single cell suspension by incubation with TrypLE (Gibco). Cells were counted and each well of 6-well low-adherence plates were seeded with 5.5×10^6 cells in 5.5 ml hES media supplemented with 10 ng/ml Activin A (R&D systems) and 10 ng/ml HeregulinB1 (Peprotech). Plates were placed on an orbital shaker at 100 rpm to induce sphere formation, as described (Schulz et al, 2012). To induce definitive endoderm differentiation, aggregates were collected 24 hours later in a 50 ml falcon tube, allowed to settle by gravity, washed once with PBS and re-suspended in d1 media (RPMI (Gibco) containing 0.2% FBS, 1:5000 ITS (Gibco), 100 ng/ml Activin A, and 50 ng/ml WNT3a (R&D systems)). Clusters from 3 wells were combined into 2 wells at this point and distributed into fresh low-attachment plates in 5.5 ml d1 media. Media thereafter was changed daily, by removing either 4.5 ml media (at the end of d1) or 5.5 ml media the following days and adding back 5.5 ml fresh media until day 9. After day 9, only 5 ml of media was removed and added daily.
Briefly, spheres were collected and allowed to settle by gravity. Clusters were washed once in PBS and dissociated by gentle pipetting after 12-15 minutes incubation in Accumax (innovative cell technologies). For sorting, cell suspension were filtered and re-suspended in FACS buffer consisting of phosphate-buffered saline (PBS) (UCSF cell culture facility) containing 2 mM EDTA (Ambion) and 1% BSA (Sigma). Dead cells were excluded by DAPI (Sigma) staining. Cell sorting was performed on a FACS Aria II (BD Bioscience). For flow-based analysis, dissociated cells were fixed with 4% paraformaldehyde (Electron Microscopy Science) for 15 minutes at room temperature, followed by two washes in PBS. Samples were either stored at 4 C or immediately stained with directly conjugated antibodies. Data analysis was performed with FlowJo software. Mouse Glucagon and mouse human C-peptide antibodies were conjugated in-house by the UCSF Antibody Core and/or with Antibody Labeling Kits (Molecular Probes) according to manufacturer's instructions. […]
To characterize the type of progenitors present in differentiating cultures at the point of endocrine induction, we performed a detailed time course analysis for the expression of pancreatic markers PDX1, NKX6.1, NEUROG3, GCG and INS (FIG. 7). […] Indeed, the expression of NEUROG3 can be detected as early as day 6, when NKX6.1 protein is absent from all cells (FIGS. 7A and B). […]

[2] = system: NEUROG3 and NKX2.2 mRNA transcripts; assay: qPCR analysis of NEUROG3 and NKX2.2 transcripts at day 8 of differentiation; conditions: day 8, compared to RCN condition / during RCN or R treatment
Protocol: Total RNA was isolated with TRIZOL (Sigma) or micro/mini RNAeasy kit (Qiagen) and reverse transcribed using the iScript cDNA Kit (Bio-Rad) according to manufacturer's instructions. qPCR analysis was performed on an ABI 7900 HT Fast Real-Time PCR System (Applied Biosystems) and CFX Connect Real Time System (Biorad) using standard protocols. Primers were Taqman Probes (Applied Biosystems) and/or as published previously (Liu et al, 2014). P-values were calculated using a two-tailed student's t-test.
To characterize the type of progenitors present in differentiating cultures at the point of endocrine induction, we performed a detailed time course analysis for the expression of pancreatic markers PDX1, NKX6.1, NEUROG3, GCG and INS (FIG. 7). […] Indeed, the expression of NEUROG3 can be detected as early as day 6, when NKX6.1 protein is absent from all cells (FIGS. 7A and B). […] We thus expected that robust generation of PDX1+/NKX6.1+ progenitor cells prior to induction of NEUROG3 would allow efficient generation of beta-like cells in vitro. […] Spheres cultured under each condition were analyzed at day 9.5 by flow cytometry to quantify the expression of PDX1 and NKX6.1, and by conventional immunofluorescence analysis for NKX6.1 and NEUROG3 expression. […]

[3] = system: NEUROG3 expression in hESC-derived clusters; assay: Immunofluorescence (whole mount / sections) for NEUROG3 protein in differentiated clusters; conditions: day 9.5, whole mount staining
Protocol: Spheres were fixed for 15-30 minutes at room temperature with 4% paraformaldehyde, followed by multiple washes in PBS. Whole mount staining was performed in suspension, by first blocking overnight at 4° C. in blocking buffer consisting of CAS-block (Invitrogen) with 0.2% TritonX (Fisher). Primary antibodies were incubated overnight at 4° C. in blocking buffer, followed by washes in PBS containing 0.1% Tween-20 (PBS-T, Sigma) and incubation in appropriate secondary antibodies diluted in PBS-T overnight at 4° C. The next day, clusters were washed in PBS-T followed by PBS and mounted with Vectashield (Vector) on glass slides. For sectioning of clusters, spheres were embedded in 2% Agar (Sigma), followed by dehydration, paraffin embedding, and sectioning. […]
To characterize the type of progenitors present in differentiating cultures at the point of endocrine induction, we performed a detailed time course analysis for the expression of pancreatic markers PDX1, NKX6.1, NEUROG3, GCG and INS (FIG. 7). […] Indeed, the expression of NEUROG3 can be detected as early as day 6, when NKX6.1 protein is absent from all cells (FIGS. 7A and B). […] Spheres cultured under each condition were analyzed at day 9.5 by flow cytometry to quantify the expression of PDX1 and NKX6.1, and by conventional immunofluorescence analysis for NKX6.1 and NEUROG3 expression. […]

Q: With `CC1=C2C[C@H]3[C@@H](CC=C4C[C@@H](O)CC[C@@]43C)[C@@H]2CC[C@]12O[C@@H]1C[C@H](C)CN[C@H]1[C@H]2C` [C, Cyclopamine] as the molecule, how does the “generation of PDX1+ cells over base media alone” value [1] read?
A: did not result in enhanced generation of PDX1+ cells

Q: `O=C1O[C@H]([C@@H](O)CO)C(O)=C1O` [Vitamin C] was tested. Which “NEUROG3 and NKX2.2 mRNA transcripts” value [2] did it give?
A: did not significantly lower

Q: With `CC1=C(/C=C/C(C)=C/C=C/C(C)=C/C(=O)O)C(C)(C)CCC1` [retinoic acid] as the molecule, how does the PDX1 positive progenitors ([1]; group 1, exposure days 6-8, alone or combined (conditions 4, 5, 6), analysed day 9.5) read?
A: > 88%

Q: And the “PDX1+ pancreatic progenitors generated” value ([1]; retinoic acid alone)?
A: more than 98%

B1: N: the BMP inhibitor Noggin (N) (protein, UniProt Q13253 28-232, looked up)
Noggin: QHYLHIRPAPSDNLPLVDLIEHPDPIFDPKEKDLNETLLRSLLGGHYDPGFMATSPPEDRPGGGGGAAGGAEDLAELDQLLRQRPSGAMPSEIKGLEFSEGLAQGKKQRLSKKLRRKLQMWLWSQTFCPVLYAWNDLGSRFWPRYVKVGSCFSKRSCSVPEGMVCKPSKSVHLTVLRWRCQRRGGQRCGWIPIQYPIISECKCSC
Q: Which results are given for B1?
A: generation of PDX1+ cells over base media alone [1]: did not result in enhanced generation of PDX1+ cells; formation of NEUROG3 positive endocrine precursors [3]: induced
